Assay [1] deals with T1, slc26a3 (Mus musculus, UniProt Q9WVC8).
T1 construct: expressed in transfected cells; host or cells: FRT cells coexpressing YFP
T1 sequence (Q9WVC8 1-757): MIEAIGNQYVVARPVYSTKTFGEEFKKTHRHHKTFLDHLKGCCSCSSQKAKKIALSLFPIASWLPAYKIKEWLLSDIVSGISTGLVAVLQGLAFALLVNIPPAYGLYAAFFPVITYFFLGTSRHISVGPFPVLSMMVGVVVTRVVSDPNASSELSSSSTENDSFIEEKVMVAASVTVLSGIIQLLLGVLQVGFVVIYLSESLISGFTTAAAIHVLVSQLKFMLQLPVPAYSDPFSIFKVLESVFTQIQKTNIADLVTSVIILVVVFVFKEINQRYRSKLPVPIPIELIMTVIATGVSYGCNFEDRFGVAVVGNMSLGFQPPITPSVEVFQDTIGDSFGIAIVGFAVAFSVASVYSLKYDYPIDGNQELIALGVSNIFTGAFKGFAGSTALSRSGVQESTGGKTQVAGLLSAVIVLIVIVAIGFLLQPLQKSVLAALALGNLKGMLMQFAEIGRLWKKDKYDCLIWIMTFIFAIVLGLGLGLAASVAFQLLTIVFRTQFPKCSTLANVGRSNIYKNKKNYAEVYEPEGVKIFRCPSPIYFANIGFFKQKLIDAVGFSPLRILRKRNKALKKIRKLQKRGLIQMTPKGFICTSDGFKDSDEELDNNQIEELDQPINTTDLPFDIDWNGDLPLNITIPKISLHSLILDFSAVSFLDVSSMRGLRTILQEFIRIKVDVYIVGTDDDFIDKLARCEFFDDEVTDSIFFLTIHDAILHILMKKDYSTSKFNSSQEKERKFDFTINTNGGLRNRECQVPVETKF
Briefly: Selectivity: Cl-/I- exchange in FRT cells coexpressing YFP and slc26a3. In kind it is cell-based. The note with it: 25 μM. How it is done:
PAT1inh-B01 selectivity was studied by testing its effects on related SLC26A family anion transporters and the Cl^– channel TMEM16A. These measurements used a similar Cl^–/I^– exchange protocol, but FRT cells separately expressed each of the SLC26A family members or TMEM16A. […] PAT1inh-B01 selectivity was also tested by short-circuit current (Isc) in well-differentiated human bronchial epithelial (HBE) cells, which have a complex ion transport mechanism that includes cystic fibrosis transmembrane conductance regulator (CFTR), epithelial Na^+ channel (ENaC), and Ca^+2-activated chloride channels (CaCCs) ([13]). […] Potential PAT1inh-B01 cytotoxicity was studied in FRT cells.
Figure 3 PAT1inh-B01 selectivity and cytotoxicity. […] Cl^–/I^– exchange or I^– influx measured in FRT cells coexpressing YFP and SLC26A isoforms or TMEM16A, with data shown for 25 μM PAT1inh-B01, DMSO vehicle control, and 500 μM niflumic acid (positive control for SLC26A transporters) or 10 μM TMinh-23 (positive control for TMEM16A). […] (C) (left) Short-circuit current (Isc) in well-differentiated HBE cells measured in the absence (top) and presence (bottom) of 25 μM PAT1inh-B01. […]
YFP-based cellular assays of slc26a3, slc26a4, SLC26A9, and TMEM16A function were performed as described previously ([7]). […] The activities of ENaC, CFTR, and CaCC were determined using well-differentiated HBE cells as described previously ([13]). […]

The subject of assay [2] is mouse distal colonic closed loops. Kind of assay: Closed distal colonic loop fluid absorption. It is filed as in vivo. To be noted: 30 μM luminal. How it is done:
For fluid absorption studies in colon, mice were given free access to 5% dextrose in water but not solid food for 48 hours. Mice were treated with 500 μL mineral oil twice a day rectally (final dose 16 h before surgery) during this period to evacuate the colon. Closed distal colonic loops (length 1.5–2 cm, 1 loop per mouse) were isolated as described previously ([7]). Loops were injected with 100 μL PBS with 30 μM PAT1inh-B01, 10 μM DRAinh-A270, or 10 μM tenapanor (or vehicle). In some experiments, 30 μM PAT1inh-B01 and 10 μM DRAinh-A270 were used together. Colonic loops were removed at 0 and 60 minutes (in separate mice), and loop length and weight were measured to quantify fluid absorption.

Each structure is given as a SMILES string.

Consider `Cc1c(Br)c(C(F)(F)F)nn1CC(=O)N1CCc2nc3cc(-c4ccccc4)[nH]n3c(=O)c2C1` [PAT1inh-B01], for which, in assay [1], the “inhibition of slc26a3” value is “did not significantly inhibit”. Besides, the “effect on colonic fluid absorption (loop weight-to-length ratio)” value in assay [2] is reported as “did not inhibit”.

For the origin of these results see publication PMC8262356, “SLC26A6-selective inhibitor identified in a small-molecule screen blocks fluid absorption in small intestine” (JCI Insight, 2021).
